Experimental data taken from US20160264593A1 (priority 2013, published 2016).
Several values for one entry are separate records, joined by “and”; a condition that tells them apart may be missing. Equal entries are not always repeated. Entries after “also recorded” stand apart in the source; their conditions may differ. Where two headings read alike, the source gives them in different places.

Tests used:
[1] = tested on: PP2A; assay: PP2A activity in mouse brains after IP dosing (PP2A immunoprecipitation phosphatase assay, malachite green); type: in vivo, Balb/c mice; conditions: for PP2A activity in the brain of mice (statement): IP, dose and time not specified; for Average Conc. (group of 3 mice) / Average Relative Activity (group, vehicle = 100) / Conc. (phosphate, single reading, per mouse) / Mean Conc. (per mouse) / Mean Conc. less IgG blank (per mouse) / Relative Conc. (per mouse, to vehicle) / Relative PP2A Activity (per mouse, vehicle = 100): brain; for PP2A activity in brains as compared with vehicle: high doses IP
Outline: (§1)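 Female Balb/c mice (6-8 weeks) were dosed IP with compound in 4% sodium bicarbonate; brain and liver were harvested 3 h and 6 h post-dose. PP2A was immunoprecipitated from 240 μg lysate with anti-PP2A, using normal IgG as control. Phosphatase activity on a threonine phosphopeptide was read by malachite green absorbance against a phosphate standard curve.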

[2] = tested on: lung cancer (A549) cells; assay: WST cell viability assay, A549; type: cell-based; conditions: Homo sapiens, A549, read-out: IC50 A549
[3] = tested on: glioblastoma (U-87) cells; assay: WST cell viability assay, U-87 MG; type: cell-based; conditions: Homo sapiens, U-87 MG
[4] = tested on: breast cancer (2LMP) cells; assay: WST cell viability assay, 2LMP
Description: IC50 values were obtained for cytotoxicity against breast cancer (2LMP), glioblastoma (U-87) and lung cancer (A549) cells (See Table 5 and FIGS. 3-5).

[5] = tested on: PP2A; assay: PP2A activity in mouse livers after IP dosing (PP2A immunoprecipitation phosphatase assay, malachite green); type: in vivo, Balb/c mice; conditions: for PP2A activity in the liver of mice (statement): IP, dose and time not specified; for Average Conc. (group of 3 mice) / Average Relative Activity (group, vehicle = 100) / Conc. (phosphate, single reading, per mouse) / Mean Conc. (per mouse) / Mean Conc. less IgG blank (per mouse) / Relative Conc. (per mouse, to vehicle) / Relative PP2A Activity (per mouse, vehicle = 100): liver; for activity of PP2A in livers as compared with vehicle (statement): high dose IP, 6 h post treatment
Outline: as §1

[6] = high dose IP (mpk: 100 1.5, 113 2.2, 151 1.6, 153 1.7, 157 2.0), 3 h
[7] = high dose IP (mpk: 100 1.5, 113 2.2, 151 1.6, 153 1.7, 157 2.0), 6 h
[8] = low dose IP (mpk: 100 0.75, 113 1.1, 151 0.8, 153 0.85, 157 1.0), 3 h
[9] = low dose IP (mpk: 100 0.75, 113 1.1, 151 0.8, 153 0.85, 157 1.0), 6 h
[10] = read-out: IC50 U-87 MG, WST-20131017 (first value of the cell)
[11] = read-out: IC50 U-87 MG, WST-20131024 (second value of the cell)
[12] = read-out: IC50 2LMP, WST-20131015 (first value of the cell)
[13] = read-out: IC50 2LMP, WST-20131025 (second value of the cell)
[14] = high dose IP (mpk: 100 1.5, 113 2.2, 151 1.6, 157 2.0), 3 h
[15] = high dose IP (mpk: 100 1.5, 113 2.2, 151 1.6, 157 2.0), 6 h

## CCCCCCCOC(=O)C1C2CCC(O2)C1C(=O)N1CCN(C)CC1 (stereo not drawn) [Compound 157, 3-(4-Methylpiperazine-1-carbonyl)-7-oxa-bicyclo[2,2,1]heptane-2-carboxylic acid heptyl ester]
[1]
  PP2A activity in the brain of mice (statement): inhibited PP2A activity
[1]; [6]
  Average Conc. (group of 3 mice): 1343.13
  Average Relative Activity (group, vehicle = 100): 54.50
  Conc. (phosphate, single reading, per mouse): 1589.30 and 1726.49 and 1634.83 and 1576.29 and 896.81 and 863.27
  Mean Conc. (per mouse): 1657.89 and 1605.56 and 880.04
  Mean Conc. less IgG blank (per mouse): 1619.87 and 1567.53 and 842.01
  Relative Conc. (per mouse, to vehicle): 0.75 and 0.72 and 0.39
  Relative PP2A Activity (per mouse, vehicle = 100): 65.72 and 63.60 and 34.16
[1]; [7]
  Average Conc. (group of 3 mice): 1748.29
  Average Relative Activity (group, vehicle = 100): 62.95
  Conc. (phosphate, single reading, per mouse): 1929.55 and 2102.31 and 1375.88 and 1308.40 and 1958.00 and 2043.77
  Mean Conc. (per mouse): 2015.93 and 1342.14 and 2000.89
  Mean Conc. less IgG blank (per mouse): 1977.90 and 1304.11 and 1962.86
  Relative Conc. (per mouse, to vehicle): 0.81 and 0.53 and 0.80
  Relative PP2A Activity (per mouse, vehicle = 100): 71.22 and 46.96 and 70.67
[1]; high dose IP, 3 h
  activity of PP2A in brains (statement): most potent; also recorded: significantly inhibited; also recorded: more effectively than compound 100
[1]; high dose IP, 6 h
  activity of PP2A in brains (statement): most potent; also recorded: significantly inhibited; also recorded: more effectively than compound 100
[1]; 3 h post treatment
  PP2A activity in brains as compared with vehicle: 51%
[1]; 6 h post treatment
  PP2A activity in brains as compared with vehicle: 63%
[1]; [8]
  Average Conc. (group of 3 mice): 1523.35
  Average Relative Activity (group, vehicle = 100): 61.81
  Conc. (phosphate, single reading, per mouse): 1696.01 and 1732.18 and 1420.80 and 1346.00 and 1604.74 and 1568.56
  Mean Conc. (per mouse): 1714.09 and 1383.40 and 1586.65
  Mean Conc. less IgG blank (per mouse): 1676.07 and 1345.37 and 1548.63
  Relative Conc. (per mouse, to vehicle): 0.77 and 0.62 and 0.71
  Relative PP2A Activity (per mouse, vehicle = 100): 68.00 and 54.59 and 62.83
[1]; [9]
  Average Conc. (group of 3 mice): 1413.26
  Average Relative Activity (group, vehicle = 100): 50.88
  Conc. (phosphate, single reading, per mouse): 1975.68 and 1782.39 and 1408.40 and 1380.55 and 1075.87 and 1084.82
  Mean Conc. (per mouse): 1879.04 and 1394.48 and 1080.34
  Mean Conc. less IgG blank (per mouse): 1841.01 and 1356.45 and 1042.32
  Relative Conc. (per mouse, to vehicle): 0.75 and 0.55 and 0.43
  Relative PP2A Activity (per mouse, vehicle = 100): 66.29 and 48.84 and 37.53
[1]; low dose IP, 6 h
  activity of PP2A in brains (statement): most potent
[2]
  IC50: > 100 µM
[3]; [10]
  IC50: > 100 µM
[3]; [11]
  IC50: > 100 µM
[4]; [12]
  IC50: 92.2 µM
[4]; [13]
  IC50: 96.4 µM
[5]
  PP2A activity in the liver of mice (statement): inhibited PP2A activity
  activity of PP2A in livers as compared with vehicle (statement): significantly inhibited
[5]; [14]
  Average Conc. (group of 3 mice): 234.28
  Average Relative Activity (group, vehicle = 100): 55.78
  Conc. (phosphate, single reading, per mouse): 344.85 and 360.53 and 257.33 and 287.81 and 202.46 and 225.54
  Mean Conc. (per mouse): 352.69 and 272.57 and 214
  Mean Conc. less IgG blank (per mouse): 307.22 and 227.09 and 168.52
  Relative Conc. (per mouse, to vehicle): 0.73 and 0.54 and 0.4
  Relative PP2A Activity (per mouse, vehicle = 100): 73.15 and 54.07 and 40.13
[5]; [15]
  Average Conc. (group of 3 mice): 232.03
  Average Relative Activity (group, vehicle = 100): 52.2
  Conc. (phosphate, single reading, per mouse): 266.91 and 213.78 and 382.3 and 411.92 and 190.7 and 199.41
  Mean Conc. (per mouse): 240.34 and 397.11 and 195.06
  Mean Conc. less IgG blank (per mouse): 194.87 and 351.63 and 149.58
  Relative Conc. (per mouse, to vehicle): 0.44 and 0.79 and 0.34
  Relative PP2A Activity (per mouse, vehicle = 100): 43.84 and 79.11 and 33.65
[5]; [8]
  Average Conc. (group of 3 mice): 328.84
  Average Relative Activity (group, vehicle = 100): 78.3
[5]; [9]
  Average Conc. (group of 3 mice): 359.62
  Average Relative Activity (group, vehicle = 100): 80.9

## CCCOC(=O)C1C2CCC(O2)C1C(=O)N1CCN(C)CC1 (stereo not drawn) [Compound 153, 3-(4-Methylpiperazine-1-carbonyl)-7-oxa-bicyclo[2,2,1]heptane-2-carboxylic acid propyl ester]
[1]
  PP2A activity in the brain of mice (statement): inhibited PP2A activity
[1]; [6]
  Average Conc. (group of 3 mice): 1620.00
  Average Relative Activity (group, vehicle = 100): 65.73
  Conc. (phosphate, single reading, per mouse): 2278.33 and 2174.47 and 1309.82 and 1252.91 and 1475.88 and 1456.77
  Mean Conc. (per mouse): 2226.40 and 1281.36 and 1466.33
  Mean Conc. less IgG blank (per mouse): 2188.37 and 1243.34 and 1428.30
  Relative Conc. (per mouse, to vehicle): 1.01 and 0.57 and 0.66
  Relative PP2A Activity (per mouse, vehicle = 100): 88.79 and 50.45 and 57.95
[1]; [7]
  Average Conc. (group of 3 mice): 1696.22
  Average Relative Activity (group, vehicle = 100): 61.07
  Conc. (phosphate, single reading, per mouse): 1822.84 and 1778.73 and 1685.64 and 1802.51 and 1690.72 and 1625.07
  Mean Conc. (per mouse): 1800.78 and 1744.07 and 1657.89
  Mean Conc. less IgG blank (per mouse): 1762.76 and 1706.05 and 1619.87
  Relative Conc. (per mouse, to vehicle): 0.72 and 0.70 and 0.66
  Relative PP2A Activity (per mouse, vehicle = 100): 63.47 and 61.43 and 58.32
[1]; high dose IP, 3 h
  activity of PP2A in brains (statement): more effectively than compound 100
[1]; high dose IP, 6 h
  activity of PP2A in brains (statement): significantly inhibited; also recorded: more effectively than compound 100
[1]; 6 h post treatment
  PP2A activity in brains as compared with vehicle: 61%
[1]; [8]
  Average Conc. (group of 3 mice): 2159.78
  Average Relative Activity (group, vehicle = 100): 87.63
  Conc. (phosphate, single reading, per mouse): 2670.21 and 2571.02 and 1916.94 and 1817.15 and 2140.93 and 2070.60
  Mean Conc. (per mouse): 2620.61 and 1867.04 and 2105.77
  Mean Conc. less IgG blank (per mouse): 2582.58 and 1829.02 and 2067.74
  Relative Conc. (per mouse, to vehicle): 1.19 and 0.84 and 0.95
  Relative PP2A Activity (per mouse, vehicle = 100): 104.78 and 74.21 and 83.90
[1]; [9]
  Average Conc. (group of 3 mice): 2104.97
  Average Relative Activity (group, vehicle = 100): 75.79
  Conc. (phosphate, single reading, per mouse): 1969.99 and 2070.60 and 2070.20 and 2078.94 and 2387.89 and 2280.36
  Mean Conc. (per mouse): 2020.30 and 2074.57 and 2334.12
  Mean Conc. less IgG blank (per mouse): 1982.27 and 2036.54 and 2296.10
  Relative Conc. (per mouse, to vehicle): 0.81 and 0.83 and 0.94
  Relative PP2A Activity (per mouse, vehicle = 100): 71.37 and 73.33 and 82.67
[2]
  IC50: > 100 µM
[3]; [10]
  IC50: > 100 µM
[3]; [11]
  IC50: > 100 µM
[4]; WST, 2LMP
  cytotoxicity against breast cancer cells (statement): cytotoxic
[4]; [12]
  IC50: 69.1 µM
[4]; [13]
  IC50: 62 µM
[5]
  PP2A activity in the liver of mice (statement): inhibited PP2A activity
  activity of PP2A in livers as compared with vehicle (statement): significantly inhibited
[5]; [8]
  Average Conc. (group of 3 mice): 387.63
  Average Relative Activity (group, vehicle = 100): 92.3
  Conc. (phosphate, single reading, per mouse): 445.88 and 461.99 and 441.96 and 438.48 and 396.24 and 414.09
  Mean Conc. (per mouse): 453.94 and 440.22 and 405.17
  Mean Conc. less IgG blank (per mouse): 408.46 and 394.74 and 359.69
  Relative Conc. (per mouse, to vehicle): 0.97 and 0.94 and 0.86
  Relative PP2A Activity (per mouse, vehicle = 100): 97.26 and 93.99 and 85.65
[5]; [9]
  Average Conc. (group of 3 mice): 364.7
  Average Relative Activity (group, vehicle = 100): 82.05
